This is an account of results in paper PMC11124341, “4-Hydroxybenzoic Acid-Based Hydrazide–Hydrazones as Potent Growth Inhibition Agents of Laccase-Producing Phytopathogenic Fungi That Are Useful in the Protection of Oilseed Crops” (Molecules, 2024).

Each structure is given as a SMILES string.

As usually defined, the Ki is a measure of affinity in units of concentration, obtained from inhibition or displacement.

Data set [1] deals with sunflower (Helianthus annuus L.) seeds. Briefly: Phytotest 1: phytotoxicity, seed germination and root growth. The data set is classed as in vivo. The note with it: 50 µg/mL; versus water–ethanol 0.5% (v/v) control; <90% inhibition, 90–110% no effect, >110% stimulation. From the text:
In the experiments with plants, two aspects were taken under consideration: (1) phytotoxicity, which determined the toxicity of the hydrazide–hydrazones on seed germination and root growth, and (2) study on the behavior of seeds in the presence of the tested hydrazide–hydrazones and pathogens producing laccase (B. cinerea and S. sclerotiorum). The non-coated seeds of Linum usitatissimum, Helianthus annuus, and Brassica napus var. napus were provided by the Institute of Soil Science and Plant Cultivation, National Research Institute in Pulawy, Department of Weed Science and Tillage Systems, and Institute of Technology and Life Sciences–National Research Institute Falenty (Poland). Both phytotests were performed based on direct-contact microbiotests following the protocol recommended by the manufacturer (PhytotestkitTM, MicroBio Tests, Mariakerke, Belgium) with the authors’ modifications.
The main phytotest equipment (Tigret, Warsaw, Poland) and general methods are described as follows. Test plates (21 × 15.5 × 0.8 cm) provide optimal moisture and enable observation of seed germination and data reading at the end of the test. A single plate is made of polyvinylchloride and composed of both a transparent bottom and a covering part that are stuck together by a set of press buttons. […] Such prepared wet support was covered with a black filter paper that soaked the solution and was applied for further testing.
In the assay of phytotoxicity (1), the seeds of three dicota plants were used, namely ten seeds of flax or rapeseed and six seeds of sunflower. The seeds were transferred directly on the filter surface by placing them along the line at approximately 1 cm from the ridge at equal distances. Then, the seeds on the filter surface were covered with a covering part and placed in a holder.
All test plates were put vertically in a special incubator to allow free germination and growth of roots at 25 °C through 5 days in the dark. The test was performed in triplicate for each test plant. The results were expressed as the germination index values (GI, Equation (2)) concerning the plant growth controls in water–ethanol solution for (1). […] The GI was calculated from the formula and categorized as an inhibition for GI values < 90%, as stimulation > 110%, and between 90 and 110% as non-toxic/no effect as proposed in the literature. (2) GI,%=Gs×Ls/Gc×Lc×100% where Gs is seed germination (%), Ls is root elongation (mm) for the test plate, and Gc and Lc are corresponding values for the control plates. Gc was calculated as the proportion of germinated seeds in the test in relation to the number of germinated seeds in the control. The control was the representative number of seeds that germinated on a medium with 0.5% (v/v) of ethanol.

The subject of data set [2] is MCF-10A cells. Briefly: Antiproliferative assay in vitro (SRB). The note with it: Homo sapiens, MCF-10A; 72 h exposure, SRB method; read-out: Average IC50 ± SD, MCF-10A line. The data set is classed as cell-based, human. How it is done: (§1) Antiproliferative tests were performed on a normal human breast cell line, MCF-10A, and a mouse embryonic fibroblast: Balb/3T3. Both cell lines were obtained from the American Type Culture Collection (Rockville, MD, USA). The cell lines were maintained in the Institute of Immunology and Experimental Therapy, Wroclaw, Poland. MCF-10A cells were cultured in the F-12 nutrient mixture (Gibco, Scotland, UK), supplemented with 5% horse serum (Gibco, Scotland, UK), […] (Vibrio cholerae Pacini), 10 μg/mL of hydrocortisone and 20 ng/mL of human epidermal growth factor (all from Sigma-Aldrich, Chemie GmbH, Steinheim, Germany). Balb/3T3 cells were cultured in Dulbecco medium (Gibco, Darmstadt, Germany) supplemented with 10% fetal bovine serum (Thermo Fisher Scientific, Waltham, MA, USA) and 2 mM l-glutamine (Sigma-Aldrich, St. Louis, MO, USA). All culture media contained antibiotics: 100 U/mL penicillin (Sigma-Aldrich, St. Louis, MO, USA) and 100 µg/mL streptomycin (Polfa-Tarchomin, Warsaw, Poland). Both cell lines were cultured during the entire experiment in a humid atmosphere at 37 °C and 5% CO2. Amistar 250 SC (fungicide) with active compound azoxystrobin was provided by the Institute of Soil Science and Plant Cultivation, National Research Institute in Pulawy, Department of Weed Science and Tillage Systems in Wroclaw, Poland […].
(§2) Twenty-four hours prior to the applications of the tested compounds, MCF-10A and Balb/3T3 cells were plated in 96-well plates at a density of 10^4 cells per well and cultured at 37 °C in a humid atmosphere saturated with 5% CO2 for 24 h. Stock solutions of the compounds were prepared ex tempore for each test by dissolving in DMSO. The cells were also exposed to the reference drugs: cis-platin (Accord, London, UK) (10–0.01 µg/mL) and DMSO (Sigma-Aldrich) (at the concentrations corresponding to those in the tested agent dilutions). The solutions were then diluted in culture medium RPMI 1640 + Opti-MEM (1:1) (both from Gibco, Scotland, UK), supplemented with 2 mM l-glutamine, 5% fetal bovine serum (all from Sigma-Aldrich Chemie GmbH, Steinheim, Germany). An assay was performed after 72 h of exposure to the tested compounds 13, 17, 18, 19, 25, 27, 30, 4-hba, 4-hbah, and 3,4,5-hba (0.5, 5.0, 50, and to 500 µM) and azoxystrobin fungicide (0.05, 0.5, 5.0 and 50 µM). The antiproliferative effect in vitro was determined by the SRB method (sulforhodamine B colorimetric assay). The optical densities of the samples were measured on the Synergy H4 photometer (BioTek Instruments, Winooski, VT, USA) at 540 nm. The results were calculated as 50% inhibitory concentration (IC50), namely the dose of the tested compound inhibiting proliferation of the tested cells by 50% as compared to the untreated control cells, in the Prolab-3 system based on Cheburator 0.4 software using the two-point method. Each test was repeated 3–5 times.
(§3) Cytotoxicity was performed on two normal cell lines: MCF -10A and Balb/3T3, using as controls cis-platin in the concentrations of 0.03 32, 0.3 32, 3.32 and 33.2 µM and azoxystrobin fungicide in the […]
(§4) were tested in the concentrations of 0.5, 5.0, 50, and 500 µM. The relation of compound concentration […]
(§5) Further, a comparison of the influence of each tested concentration in the group of tested compounds on cell lines was illustrated in Figure S130 a (MCF-10A) and b (Balb/T3T).
(§6) Table S4. Cytotoxicity results for compounds 13, 17, 18, 19, 25, 27, and 30 investigated on normal mammalian lines: MCF -10A and B alb/3T3 using Azoxystrobin (fungicide) and cis-platin as reference compounds.
(§7) Cytotoxicity profile presented as proliferation inhibition, % (y -axis) in the function of compound concentration, […]
(§8) Structure MCF-10A Balb/3T3
(§9) Proliferation inhibition [%] […]
(The SRB assay estimates cell density from bound dye.)

In data set [3] the test system is Balb/3T3 cells. Briefly: Antiproliferative assay in vitro (SRB). The note with it: Mus musculus, BALB/3T3; 72 h exposure, SRB method; read-out: Average IC50 ± SD, Balb/3T3 line. The data set is classed as cell-based, mouse. The method, then:
as §1, §2, §3, §4, §5, §6, §7, §8, §9

The target in data set [4] is laccase from Trametes versicolor. The note with it: read-out: Laccase inhibition, Ki; cited from earlier work.

As to `O=C(N/N=C/c1cc(O)ccc1O)c1ccc(O)cc1` [compound 13], in data set [1], the “Germination index (GI), sunflower, test 1” value was 87%. Also, the values for the IC50 in data set [2] and in data set [3] were 213 ± 34.1 µM and 132 ± 9.22 µM, respectively.

Take `COc1cc(/C=N/NC(=O)c2ccc(O)cc2)ccc1O` [compound 17]: the IC50 turned out to be 275 ± 41.5 µM in data set [2] and 217 ± 61.2 µM in data set [3]. Moreover, in data set [4], the inhibition constant (Ki) is 251 µM.

On to `CC(C)(C)c1cccc(/C=N/NC(=O)c2ccc(O)cc2)c1O` [compound 18], for which the “Germination index (GI), sunflower, test 1” value in data set [1] was “no effect”. Also, the IC50 in data set [2] turned out to be 6.41 ± 2.05 µM; in data set [3] it was 11.4 ± 2.54 µM. Also, the inhibition constant (Ki) in data set [4] was 24 µM.

As to `O=C(N/N=C/c1cccc(-c2ccccc2)c1O)c1ccc(O)cc1` [compound 19], in data set [1], the “Germination index (GI), sunflower, test 1” value is on record as “no effect”. In addition, the IC50 in data set [2] was determined as 3.44 ± 0.83 µM; in data set [3] it was 3.97 ± 0.15 µM. Besides, in data set [4], the Ki is 25.3 µM.

Take `Cc1cc(/C=N/NC(=O)c2ccc(O)cc2)c(O)c(CO)c1` [compound 25]: the “Germination index (GI), sunflower, test 1” value in data set [1] is listed as “non-toxic”. Also, the IC50 in data set [2] was found to be 27.5 ± 1.83 µM; in data set [3], 27.2 ± 4.3 µM. Also, in data set [4], the inhibition constant Ki was at least 1000 µM.

In the case of `CC(C)(C)c1cc(/C=N/NC(=O)c2ccc(O)cc2)c(O)c(C(C)(C)C)c1` [compound 27], in data set [1], the “Germination index (GI), sunflower, test 1” value was 82%. For the same compound, the IC50 is 7.73 ± 1.08 µM in data set [2] and 11.7 ± 0.69 µM in data set [3]. Besides, in data set [4], the Ki is 17.9 µM.

With `Cc1cc(/C=N/NC(=O)c2ccc(O)cc2)c(O)c(C(C)(C)C)c1` [compound 30], the “Germination index (GI), sunflower, test 1” value in data set [1] came out at 67%. Further, the IC50 amounted to 8.85 ± 5.47 µM in data set [2] and 23.1 ± 3.87 µM in data set [3]. For the same compound, in data set [4], the inhibition constant (Ki) is 26.4 µM.
